The source made the active and inactive calls.
What was measured:
[1] = cytotoxicity in HPDE-C7 cells, cell-based, fluorescence, HTS (AID 430); assay type: functional; settings: Homo sapiens
[2] = cytotoxicity in KRAS-transformed pancreatic duct cells, primary screen, cell-based, fluorescence, HTS (AID 431); assay type: functional; settings: Homo sapiens;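 further: cell line used: HPDE-C7K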
[3] = inhibitors of intracellular T. cruzi replication, confirmation, NIH3T3 host cells, beta-gal luminescence (AID 2044); assay type: functional, cell-based;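 further: intracellular parasites grown in NIH/3T3 mouse fibroblasts as host cells; luminescent beta-galactosidase reporter signal from transgenic T. cruzi replicating inside host cells; inhibitors lower the luminescence signal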
[4] = cytotoxicity toward NIH3T3 fibroblasts, dose response, counter-screen, cell-based, ATP luminescence, mouse fibroblasts (AID 2010); assay type: functional;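 further: cells exposed to compound for about 90 hours before reading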
[5] = cells
[6] = biological target: Kallikrein-7 (Homo sapiens, UniProt P49862); assay: Fluorescence Intensity-based biochemical primary high throughput dose response assay to identify activators of kallikrein-7 (K7) zymogen.
Chain of Kallikrein-7 (P49862 whole entry): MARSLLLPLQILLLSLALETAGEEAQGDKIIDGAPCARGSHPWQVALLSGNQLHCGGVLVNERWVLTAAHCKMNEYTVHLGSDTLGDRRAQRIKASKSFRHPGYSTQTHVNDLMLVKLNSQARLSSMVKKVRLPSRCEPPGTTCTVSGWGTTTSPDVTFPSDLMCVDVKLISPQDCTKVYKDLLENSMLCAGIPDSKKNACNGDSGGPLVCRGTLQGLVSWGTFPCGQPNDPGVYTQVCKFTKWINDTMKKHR

[7] = biological target: Cytochrome P450 3A4 (Homo sapiens, UniProt P08684);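 further: CYP3A4 tested as one member of a cytochrome P450 panel screen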
Chain of Cytochrome P450 3A4 (P08684 whole entry): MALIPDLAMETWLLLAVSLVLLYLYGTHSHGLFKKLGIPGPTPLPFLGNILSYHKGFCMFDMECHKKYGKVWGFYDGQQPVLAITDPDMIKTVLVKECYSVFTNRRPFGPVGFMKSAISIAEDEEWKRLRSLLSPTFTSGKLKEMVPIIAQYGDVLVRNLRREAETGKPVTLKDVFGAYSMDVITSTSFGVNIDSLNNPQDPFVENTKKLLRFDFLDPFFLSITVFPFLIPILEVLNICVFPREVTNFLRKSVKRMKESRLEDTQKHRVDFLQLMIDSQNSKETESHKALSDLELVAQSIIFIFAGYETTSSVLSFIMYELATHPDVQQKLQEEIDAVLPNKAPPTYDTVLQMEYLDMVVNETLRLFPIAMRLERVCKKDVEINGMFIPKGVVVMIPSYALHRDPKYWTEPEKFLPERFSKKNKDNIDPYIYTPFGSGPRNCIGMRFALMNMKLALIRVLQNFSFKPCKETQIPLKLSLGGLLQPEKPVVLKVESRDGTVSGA

[8] = biological target: Prothrombin (Homo sapiens, UniProt P00734); assay: Thrombin 1536 HTS Dose Response Confirmation. [Related pubchem assays: 1046 (Thrombin 1536 HTS; hits were confirmed in this assay)]; assay type: functional
[9] = cells; assay type: functional, cell-based
[10] = cells; assay type: functional, cell-based; remark: listed apart in the source
[11] = biological target: Cytochrome P450 2D6 (Homo sapiens, UniProt P10635);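 further: CYP2D6 member of a cytochrome P450 panel assay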
Chain of Cytochrome P450 2D6 (P10635 whole entry): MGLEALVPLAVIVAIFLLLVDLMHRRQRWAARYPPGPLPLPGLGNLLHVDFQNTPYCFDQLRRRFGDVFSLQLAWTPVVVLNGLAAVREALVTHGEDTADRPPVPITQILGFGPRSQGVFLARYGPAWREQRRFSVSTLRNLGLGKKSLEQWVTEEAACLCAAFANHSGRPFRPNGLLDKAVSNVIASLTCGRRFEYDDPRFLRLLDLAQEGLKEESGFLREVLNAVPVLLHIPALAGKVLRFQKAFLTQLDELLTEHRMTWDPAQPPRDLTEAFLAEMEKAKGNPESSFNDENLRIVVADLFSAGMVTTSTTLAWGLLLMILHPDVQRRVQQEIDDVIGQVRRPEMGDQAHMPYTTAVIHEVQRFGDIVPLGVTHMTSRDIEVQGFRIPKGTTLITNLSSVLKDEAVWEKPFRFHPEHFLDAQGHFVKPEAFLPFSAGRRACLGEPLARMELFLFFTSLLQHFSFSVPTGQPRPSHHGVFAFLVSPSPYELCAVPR

[12] = biological target: Cytochrome P450 2C9 (Homo sapiens, UniProt P11712)
Chain of Cytochrome P450 2C9 (P11712 whole entry): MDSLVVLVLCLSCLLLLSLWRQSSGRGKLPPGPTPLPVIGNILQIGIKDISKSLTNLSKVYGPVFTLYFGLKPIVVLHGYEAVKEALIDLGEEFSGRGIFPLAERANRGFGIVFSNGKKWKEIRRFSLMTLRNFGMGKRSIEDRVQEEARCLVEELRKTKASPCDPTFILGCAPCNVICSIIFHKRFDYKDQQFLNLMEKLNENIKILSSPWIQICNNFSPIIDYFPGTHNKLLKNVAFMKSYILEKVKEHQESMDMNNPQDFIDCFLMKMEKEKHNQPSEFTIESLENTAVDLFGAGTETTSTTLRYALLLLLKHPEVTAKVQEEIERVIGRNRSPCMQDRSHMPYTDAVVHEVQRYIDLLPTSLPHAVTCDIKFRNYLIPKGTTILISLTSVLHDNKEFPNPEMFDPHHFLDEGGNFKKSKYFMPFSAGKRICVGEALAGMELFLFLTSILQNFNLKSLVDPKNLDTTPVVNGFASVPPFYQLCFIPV

[13] = Vero cell cytotoxicity, dose response, cytotoxicity control for Vif-APOBEC3G degradation inhibitor project, Vero cells (AID 1117358); assay type: functional; settings: Human immunodeficiency virus 1, Vero
[14] = LGR2 antagonists, dose response, cell-based, HEK293, CRE-luciferase reporter, cherry pick, set 2 (AID 743343); assay type: functional;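 further: transfected cells were stimulated with diluted bursicon conditioned medium after compound addition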
[15] = cells; assay type: functional
[16] = A549 cell cytotoxicity, dose response, cytotoxicity control, plate reader, cherry-pick, antagonist series (AID 743412); assay type: functional, cell-based
[17] = MC4R antagonists, dose response, counter-screen for LGR2 antagonist project, cell-based, plate reader, cherry pick (AID 743444); assay type: functional;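 further: transfected HEK 293 cells stimulated with alpha-MSH peptide; potency of inhibitors of the alpha-MSH evoked signal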
[18] = HEK293 cell cytotoxicity, dose response, cytotoxicity control, plate reader, cherry-picked samples (AID 743446); assay type: functional, cell-based
[19] = HepG2 cell cytotoxicity, dose response, cytotoxicity control, plate reader, cherry-pick, antagonist series (AID 743416); assay type: functional, cell-based
[20] = biological target: T1, Protein Tat (Human immunodeficiency virus type 1 group M subtype B (isolate HXB2)(HIV-1), UniProt P04608); assay type: functional;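 further: tat binding to TAR RNA read out by fluorescence polarization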
T1 sequence (P04608 whole entry): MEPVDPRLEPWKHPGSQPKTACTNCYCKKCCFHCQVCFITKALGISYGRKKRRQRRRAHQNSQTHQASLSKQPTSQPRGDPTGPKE

[21] = Luminescence-based cell-based high throughput dose response assay to identify activators of the DAF-12 from the parasite S. stercoralis (ssDAF-12).; assay type: functional
[22] = biological target: T2, Oxysterols receptor LXR-beta (Homo sapiens, UniProt P55055); assay: LXR agonists, Gal4 luciferase reporter, dose response, counter-screen for ssDAF-12 agonist project, cell-based, luminescence, HEK293, S. stercoralis campaign (AID 720737); assay type: functional; settings: read-out: IC50 (the source's name)
T2 sequence (P55055 whole entry): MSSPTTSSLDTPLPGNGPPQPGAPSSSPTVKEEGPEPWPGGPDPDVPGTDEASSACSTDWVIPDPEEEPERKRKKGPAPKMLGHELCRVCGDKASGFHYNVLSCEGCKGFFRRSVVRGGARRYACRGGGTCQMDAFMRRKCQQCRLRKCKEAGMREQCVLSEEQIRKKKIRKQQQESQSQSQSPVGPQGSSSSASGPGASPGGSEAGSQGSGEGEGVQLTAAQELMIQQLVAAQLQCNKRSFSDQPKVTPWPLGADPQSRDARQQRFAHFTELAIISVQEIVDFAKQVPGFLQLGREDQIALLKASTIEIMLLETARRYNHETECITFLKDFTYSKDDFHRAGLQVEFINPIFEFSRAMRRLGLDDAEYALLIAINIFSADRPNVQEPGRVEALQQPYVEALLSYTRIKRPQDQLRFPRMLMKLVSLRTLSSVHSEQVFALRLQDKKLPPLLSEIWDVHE

[23] = Luminescence Cell-Based Dose Retest to Confirm Inhibitors of Cancer Stem Cells. [Related pubchem assays (depositor defined):AID2717, AID2721]; assay type: functional; settings: Homo sapiens
[24] = growth suppression of beta-catenin-knockout colon cells, dose response, cell-based, HCT116, human colon tumor (AID 1045); assay type: functional;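 further: HCT116 colon tumor cells with beta catenin knocked out; cells exposed to compound for 60 hours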
[25] = biological target: T3, Mannose-6-phosphate isomerase (Homo sapiens, UniProt P34949); assay: human PMI inhibitors, high substrate, primary screen, biochemical, fluorescence intensity, high mannose 6-phosphate (AID 1220)
T3 sequence (P34949 whole entry): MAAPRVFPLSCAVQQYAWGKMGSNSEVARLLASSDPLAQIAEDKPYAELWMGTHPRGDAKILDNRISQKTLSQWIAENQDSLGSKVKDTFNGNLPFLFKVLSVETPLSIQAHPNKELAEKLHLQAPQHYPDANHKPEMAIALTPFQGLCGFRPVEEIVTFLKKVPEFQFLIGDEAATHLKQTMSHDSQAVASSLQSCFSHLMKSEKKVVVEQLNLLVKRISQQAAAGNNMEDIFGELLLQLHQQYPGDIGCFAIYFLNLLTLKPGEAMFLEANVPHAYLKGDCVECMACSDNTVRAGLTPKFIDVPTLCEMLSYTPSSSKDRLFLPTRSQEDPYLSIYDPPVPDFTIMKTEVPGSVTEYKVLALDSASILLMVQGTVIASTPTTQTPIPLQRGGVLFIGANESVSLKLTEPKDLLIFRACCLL

[26] = control 3'UTR Renilla luciferase suppression, dose response, counter-screen for Shn3 inhibitor project, cell-based, Clone20-Shn3RL, cherry-picked (AID 624133); assay type: functional
[27] = biological target: T4, Fatty acid synthase (Homo sapiens, UniProt P49327); assay: FAS thioesterase domain inhibitors, dose response, biochemical, kinetic fluorescence intensity (AID 624326); assay type: functional;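 further: rate of fluorescence rise from hydrolysis of a fluorogenic O-methyl fluorescein ester substrate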
T4 sequence (P49327 whole entry, the tested form may be a part): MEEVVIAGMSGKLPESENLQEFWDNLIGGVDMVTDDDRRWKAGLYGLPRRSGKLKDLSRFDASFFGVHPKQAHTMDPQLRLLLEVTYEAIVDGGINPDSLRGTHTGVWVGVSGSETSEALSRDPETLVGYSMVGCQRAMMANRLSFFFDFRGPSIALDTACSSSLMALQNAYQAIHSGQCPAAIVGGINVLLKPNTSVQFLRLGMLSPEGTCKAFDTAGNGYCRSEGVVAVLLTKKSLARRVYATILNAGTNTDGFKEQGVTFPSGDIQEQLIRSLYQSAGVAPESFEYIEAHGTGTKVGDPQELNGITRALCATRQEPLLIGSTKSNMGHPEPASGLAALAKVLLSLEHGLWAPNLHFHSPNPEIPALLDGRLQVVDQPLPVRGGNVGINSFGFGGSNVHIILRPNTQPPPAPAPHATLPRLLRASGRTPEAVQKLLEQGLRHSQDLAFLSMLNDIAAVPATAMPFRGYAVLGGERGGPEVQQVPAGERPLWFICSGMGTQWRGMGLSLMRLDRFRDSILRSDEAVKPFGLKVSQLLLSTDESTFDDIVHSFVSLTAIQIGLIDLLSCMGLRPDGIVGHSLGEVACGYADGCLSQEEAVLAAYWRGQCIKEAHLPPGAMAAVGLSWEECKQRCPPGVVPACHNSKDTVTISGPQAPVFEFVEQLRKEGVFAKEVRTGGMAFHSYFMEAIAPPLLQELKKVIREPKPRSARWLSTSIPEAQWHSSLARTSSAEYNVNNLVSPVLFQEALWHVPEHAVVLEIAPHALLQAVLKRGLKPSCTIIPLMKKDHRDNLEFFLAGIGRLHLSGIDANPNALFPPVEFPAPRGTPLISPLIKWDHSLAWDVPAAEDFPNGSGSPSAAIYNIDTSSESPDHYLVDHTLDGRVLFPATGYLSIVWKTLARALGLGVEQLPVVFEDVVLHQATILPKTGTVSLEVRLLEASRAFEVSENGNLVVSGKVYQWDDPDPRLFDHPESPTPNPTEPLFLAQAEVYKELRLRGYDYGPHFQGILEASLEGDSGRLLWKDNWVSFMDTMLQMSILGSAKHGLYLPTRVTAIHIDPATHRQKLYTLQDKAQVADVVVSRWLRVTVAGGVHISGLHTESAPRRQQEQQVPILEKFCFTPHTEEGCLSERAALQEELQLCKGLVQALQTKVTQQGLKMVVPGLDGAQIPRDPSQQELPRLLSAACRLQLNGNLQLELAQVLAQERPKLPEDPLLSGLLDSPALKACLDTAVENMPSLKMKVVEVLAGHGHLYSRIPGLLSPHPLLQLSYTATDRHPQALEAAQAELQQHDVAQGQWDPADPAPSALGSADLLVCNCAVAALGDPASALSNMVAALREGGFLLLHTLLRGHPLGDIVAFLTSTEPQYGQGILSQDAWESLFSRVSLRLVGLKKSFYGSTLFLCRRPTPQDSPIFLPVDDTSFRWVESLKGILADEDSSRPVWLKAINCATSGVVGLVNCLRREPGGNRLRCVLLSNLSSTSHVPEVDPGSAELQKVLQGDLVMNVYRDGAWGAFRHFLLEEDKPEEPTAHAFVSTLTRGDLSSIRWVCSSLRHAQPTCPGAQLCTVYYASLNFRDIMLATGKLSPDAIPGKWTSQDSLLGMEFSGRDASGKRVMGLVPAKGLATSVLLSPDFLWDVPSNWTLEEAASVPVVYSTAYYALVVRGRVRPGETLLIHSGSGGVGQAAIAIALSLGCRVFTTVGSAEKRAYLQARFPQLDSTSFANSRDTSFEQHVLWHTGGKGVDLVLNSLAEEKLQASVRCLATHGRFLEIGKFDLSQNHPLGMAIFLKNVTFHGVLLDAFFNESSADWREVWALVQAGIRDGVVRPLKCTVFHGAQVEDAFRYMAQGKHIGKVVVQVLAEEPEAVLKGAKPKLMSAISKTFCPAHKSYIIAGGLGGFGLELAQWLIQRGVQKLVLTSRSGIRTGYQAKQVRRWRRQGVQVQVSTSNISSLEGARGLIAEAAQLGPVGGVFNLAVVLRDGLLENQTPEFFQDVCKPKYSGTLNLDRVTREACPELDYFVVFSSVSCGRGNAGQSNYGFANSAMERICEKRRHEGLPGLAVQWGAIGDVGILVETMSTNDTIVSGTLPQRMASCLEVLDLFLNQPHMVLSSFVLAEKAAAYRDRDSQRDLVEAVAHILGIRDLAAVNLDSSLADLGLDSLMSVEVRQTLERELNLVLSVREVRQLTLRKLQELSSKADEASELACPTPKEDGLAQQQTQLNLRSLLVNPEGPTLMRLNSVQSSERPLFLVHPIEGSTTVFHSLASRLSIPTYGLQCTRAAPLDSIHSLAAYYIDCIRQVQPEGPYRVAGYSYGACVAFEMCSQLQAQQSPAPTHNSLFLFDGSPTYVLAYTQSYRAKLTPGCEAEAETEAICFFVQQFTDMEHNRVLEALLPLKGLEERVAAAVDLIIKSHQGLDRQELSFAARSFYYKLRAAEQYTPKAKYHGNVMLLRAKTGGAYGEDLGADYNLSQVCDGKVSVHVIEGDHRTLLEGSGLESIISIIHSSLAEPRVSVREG

[28] = biological target: T4, Fatty acid synthase; assay: FAS thioesterase domain inhibitors, dose response, biochemical, endpoint fluorescence intensity, uHTS hits (AID 624327); assay type: functional;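 further: fluorescence from hydrolysis of an O-methyl fluorescein acyl ester substrate by the enzyme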
[29] = growth suppression of PTEN-null colon cells, dose response, cell-based, HCT116 PTEN knockout (AID 1047); assay type: functional;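 further: HCT116 colon tumor cells with PTEN knocked out; cells exposed to compound for 60 hours before readout; potency for loss of cell viability measured by luminescence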
[30] = HepG2 cell cytotoxicity, dose response, cytotoxicity control for Shn3 inhibitor project, CellTiter-Glo, cherry-picked (AID 624134); assay type: functional, cell-based
[31] = biological target: T5, Heat shock factor protein 1 (Mus musculus, UniProt P38532); assay: HSF1 potentiators in luciferase reporter cells, confirmation, cell-based, NIH3T3, luminescence, dose retest (AID 435004); assay type: functional;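 further: stress induced by proteasome inhibitor MG132 added 30 min after compound; luciferase reporter driven by HSF1 response element in NIH3T3 cells; actives raise luminescence as potentiators of the MG132 stress response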
T5 sequence (P38532 whole entry): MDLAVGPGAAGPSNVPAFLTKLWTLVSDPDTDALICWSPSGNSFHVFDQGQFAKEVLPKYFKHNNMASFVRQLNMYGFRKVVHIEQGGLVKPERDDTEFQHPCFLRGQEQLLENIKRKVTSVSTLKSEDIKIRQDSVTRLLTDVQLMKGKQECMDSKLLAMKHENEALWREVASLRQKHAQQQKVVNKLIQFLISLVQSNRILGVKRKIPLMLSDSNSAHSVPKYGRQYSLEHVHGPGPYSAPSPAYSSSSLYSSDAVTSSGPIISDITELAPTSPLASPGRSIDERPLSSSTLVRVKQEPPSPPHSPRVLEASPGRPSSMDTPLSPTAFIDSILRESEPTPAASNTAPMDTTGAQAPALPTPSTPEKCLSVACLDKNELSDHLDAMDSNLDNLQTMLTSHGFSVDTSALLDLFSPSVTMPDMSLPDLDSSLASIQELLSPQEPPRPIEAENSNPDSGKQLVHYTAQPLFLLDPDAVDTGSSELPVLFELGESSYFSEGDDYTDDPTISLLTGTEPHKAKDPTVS

[32] = Shn3 3'UTR reporter inhibitors, dose response, cell-based, Clone20 osteoblasts, firefly luciferase, cherry-picked (AID 624132); assay type: functional;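 further: firefly luciferase luminescence from reporter carrying the Shn3 3'UTR in osteoblasts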

In the case of `CCOC(=O)C1=C(N)c2ccccc2CC1C(C)C` (centres undefined), the EC50 [1] is reported as > 20 µM (not active) and the EC50 [2] is reported as > 20 µM (not active).

For `CN1CCc2c(sc3c2c(=O)n(-c2ccccc2)c2nnc(SCc4ccccc4)n32)C1`, the EC50 [3] was < 0.1 µM (active), the EC50 [4] was > 60 µM (not active) and the EC50 [5] was 0.015 µM (active).

With `CC1CC(C)CN(C(=O)c2cc3c(=O)n4ccccc4nc3s2)C1` (centres undefined) the EC50 [6] was > 69.5 µM (inactive).

For `CCOc1nc(NCCN2CCOCC2)nc(Nc2ccc(C)cc2)n1`, the AC50 [7] was 15.8 µM (inconclusive), the IC50 [8] was > 50 µM (not active) and the EC50 [9] was > 350 µM (not active). The EC50 [10] was > 350 µM (not active), the AC50 [11] was 11.2 µM (inconclusive) and the AC50 [12] was 11.2 µM (inconclusive).

For `CCc1cc2c(N3CCCCC3)ncnc2s1`, the CC50 [13] was > 40 µM (active).

For `O=C(COc1ccc2c(c1)CCC2)Nc1ccccn1`, the AC50 [14] was 7.18 µM (active), the IC50 [15] was 39.2 µM (active) and the AC50 [16] was 45.3 µM (active). The AC50 [17] was 6.74 µM (active) and the AC50 [18] was 33.3 µM (active).

For `COC(=O)C1=C(N)Oc2cc(C)n(Cc3cccnc3)c(=O)c2C1c1cccc(OC)c1OC` (centres undefined), the CC50 [13] was > 40 µM (active).

For `O=c1cc(CN2CCN(Cc3ccccc3)CC2)c2ccc(O)cc2o1`, the EC50 [3] was < 0.1 µM (active), the EC50 [4] was > 60 µM (not active) and the EC50 [5] was 0.038 µM (active).

With `Cc1cccc(N2CCN(C(=O)C3CCN(c4ncnc5c4nc4n5CCCCC4)CC3)CC2)c1C` the AC50 [19] was 34.2 µM (active), the AC50 [14] was 31.3 µM (active) and the AC50 [16] was 35 µM (active). For the same molecule, the AC50 [17] was 35.8 µM (active) and the AC50 [18] was 27.1 µM (active).

For `CC(C)CN(C(=O)CN1CCN(c2ccc(O)cc2)CC1)c1c(N)n(CC(C)C)c(=O)[nH]c1=O`, the IC50 [20] was > 100 µM (active).

For `CCCCCCC1(C)N=C(S)N(c2ccccc2)N1` (centres undefined), the IC50 [21] was > 67.6 µM (inactive) and the EC50 [22] was > 67.6 µM (inactive).

In the case of `O=[N+]([O-])c1c(NCCCO)cc(Sc2ccc(Cl)cc2)c2nonc12`, the AC50 [23] is reported as 4.49 µM (active), the EC50 [24] is reported as 9.46 µM (active) and the IC50 [25] is reported as > 50 µM (not active). For the same molecule, the AC50 [26] was 12.7 µM (active), the IC50 [27] was 6.69 µM (active) and the IC50 [28] was 11.5 µM (active). The EC50 [29] was 13.5 µM (active), the AC50 [30] was 25.4 µM (active) and the EC50 [31] was 4.81 µM (active). The AC50 [32] was 5.63 µM (active).

In the case of `Nc1nnc(SCCCC(=O)c2ccccc2)s1`, the IC50 [8] is reported as > 50 µM (not active).

For `Cc1ccc2c(CN3CCN(Cc4ccccc4)CC3)cc(=O)oc2c1`, the EC50 [3] was < 0.1 µM (active), the EC50 [4] was > 60 µM (not active) and the EC50 [5] was 0.049 µM (active).
